# Measurements taken from paper PMC5636194 (Journal of nanomedicine & nanotechnology, 2017).
# How the values were obtained:
# T98G cells [1] = experiment: Glucose quantification in medium; format: cell-based; settings: 10 µM, 48 and 72 hours
# Procedure: Glucose was measured per instructions from a kit manufactured by Sigma-Aldrich. Briefly, 200,000 U87 and T98G cells were seeded into a 6-well plate and incubated overnight. […] After designated times, medium was removed, diluted 1:100 in glucose assay buffer (glucose oxidase, horseradish peroxidase, and O-dianisidine), then added to a 96-well plate at a 1:3 dilution in glucose assay buffer. The plate was then incubated at 37°C and 5% CO2 for 30 minutes, and the reactions halted by the addition of 66 uL of 12 N sulfuric acid. Absorbance values were evaluated at 540 nm on a Biotek Synergy 2 plate reader.
# [2] = In vivo bio-distribution (LC-MS/MS, noncompartmental PK); parameters: species or system mice (CD-1); settings: female, mouse; CD-1 mice, single IV dose 8 mg/kg, plasma
# Procedure: Female mice (CD-1 background, 5–6 weeks old) were used for all bio-distribution studies. […] Plasma was processed from whole blood by centrifugation of EDTA-treated blood for 10 minutes at 9,600g, then stored at −80°C until analyzed. In addition, kidneys, spleen, lung, liver, and brain were removed, weighed; flash frozen, then homogenized in a 3-fold volume of PBS for further analysis and stored at −80°C. […] Next, 100 µL of each sample (plasma or tissue homogenate) was crashed with 200 µL methanol+0.1% formic acid+50 ng/mL (final concentration) n-benzyl benzamide internal standard, vortexed for 15 seconds, incubated at room temperature for 10 minutes, then centrifuged at 16,000g for 5 minutes at 4°C. 250 µL of supernatant was then transferred to an Eppendorf tube, centrifuged as previously described, then 195 µL of supernatant transferred to an HPLC vial with insert for analysis by HPLC-MS/MS (AB Sciex 3200 QTrap). […] The limit of detection (LOD) was set at the standard concentration providing an analyte signal three-fold above blank matrix. […] Per UTSW’s lab SOPs, samples falling below LOQ and above LOD are assigned a value of ½LOQ. Samples falling below LOQ and LOD are assigned a value of 0.
# U87 cells [3] = experiment: ATP quantification (luciferase luminescence); format: cell-based; settings: 10 µM, 24 hours
# Procedure: U87 and T98G cells were seeded into 6-well plates at 200,000 cells/well in 1 mL DMEM high glucose with pyruvate (10% FBS and 1% Pen/Strep) and allowed to grow overnight. […] Following a modified protocol outlined in an ATP kit obtained from Life Technologies, cells were washed twice with PBS, then lysed with 150 uL of ATP assay buffer (500 mM Tricine buffer, pH 7.8, 100 mM MgSO4, 2 mM EDTA, and 2 mM sodium azide) containing 1% Triton X-100, dislodged by scraping with a pipette tip, and transferred to 1.5 mL Eppendorf tubes on ice for 5 minutes. 10 uL of cell lysate was then added in triplicate to a white 96-well plate, also containing ATP standards. Before reading the plate, 100 uL of ATP assay buffer containing 90 µg/mL D-luciferin, 20 µM DTT, and 25 µg/mL Luciferase) was added to each well. Luminescence was calculated using a Tecan Infinite F200 plate reader. Protein concentration was also determined using the Pierce 660 nm Protein Assay (660 nm absorbance), with ATP production standardized to protein values.
# T98G cells [4] = experiment: Cellular bioenergetics analysis (Seahorse XF24 oxygen consumption); format: cell-based
# Procedure: (§1) Assay was performed according to manufacturer’s directions and as previously described, where U87 and T98G cells were plated at 30,000 cells/well in an XF24 plate and allowed to attach overnight. Media was replaced an hour before onset of the assay with XF24 media, and then, rotenone/antimycin A mix, FCCP, and oligomycin were diluted in XF24 media and loaded into the provided cartridge to obtain final concentrations of 100 nM, 300 nM, and 1 µg/mL, respectively. […] Addition of the compounds into the medium took place at designated time points, and oxygen consumption was examined using a Seahorse Bioscience XF24 Extracellular Flux Analyzer.
# U87 cells [5] = experiment: as above; format: cell-based
# Procedure: as §1
# T98G cells [6] = experiment: Cell viability (calcein AM); format: cell-based; settings: 10 µM
# Procedure: (§2) U87 and T98G cells were seeded at 750 cells/well in 100 µL DMEM high glucose with pyruvate (10% FBS and 1% Pen/Strep) in a black, 96-well flat-bottomed plate, and allowed to attached overnight. […] The next morning, the plates were washed with 200 µL/well 1X PBS, which was removed and replaced with 95 µL calcein AM reagent at 1:1000 dilution in 1X PBS.
# U87 cells [7] = experiment: Cell viability (calcein AM); format: cell-based
# Procedure: as §2
# T98G cells [8] = experiment: Liquid colony formation assay (4 weeks); format: cell-based; settings: 10 µM
# Procedure: (§3) Cells were seeded into 6-well culture plates (Falcon) at a concentration of 50 cells/well in 1 mL DMEM high glucose with pyruvate (Gibco), 10% FBS, and 1% Pen/Strep. Treatments were added to each well to obtain a pre-determined final concentration in 2 mL/well total volume. Plates were incubated for 4 weeks undisturbed, and only carefully received a media change at week 3 with or without drug treatments if colonies were not visible. Following completion of the 4-week incubation period, colonies were stained as previously described. […] Stained colonies were counted, with the number and size documented.
# U87 cells [9] = experiment: Liquid colony formation assay (4 weeks); format: cell-based; settings: 10 µM
# Procedure: as §3
compound,measurement,setting,value
"CN(C)c1ccc2nc3ccc(=[N+](C)C)cc-3sc2c1 [MB, methylene blue]",Sample glucose compared to untreated cells,T98G cells [1],significant increases
same,AUC,[2],2130 ng·h/mL
same,ATP levels compared to control,U87 cells [3],increased
same,Increase in OCR,T98G cells [4]; 10 µM,1.5 fold
same,Oxygen consumption rate (OCR),T98G cells [4]; 1 and 10 µM,significantly increased
same,Oxygen consumption rate (OCR),U87 cells [5]; 10 µM,significant increase
same,Oxygen consumption rate (OCR),U87 cells [5]; lower treatment concentration (1 µM),not seen
same,Initial reduction in cell viability,T98G cells [6]; 24 and 72 hours,25%
same,Additional reduction in cell viability,T98G cells [6]; through […],~ 50%
same,Cell viability over time course,"U87 cells [7]; 10 µM, 24, 72 and […]",did not induce cell death until 72 and 144 hours
same,Cell viability,"U87 cells [7]; 10 µM, 24-hour treatment",increase in cell viability
same,Average colony size compared to control,T98G cells [8],significantly reduced
same,Average number of colonies,T98G cells [8],significantly reduced
same,Average colony size compared to control,U87 cells [9],significantly reduced
same,Average number of colonies,U87 cells [9],reduced
